Experimental data: US4696918A, “Solubilized platinum compound” (Johnson Matthey Public Limited Company, priority 1984, dated 1987)
Read-outs that look alike come from different tables or passages of the source.

Legend:
[1] = distribution of platinum in blood, urine and faeces following intravenous administration; type: in vivo, male Wistar albino rats; details: rat, 24 hours
in vivo haematotoxicity = assay: in vivo haematotoxicity; parameters: species or system male Wistar albino rats; details: rat; for haematotoxicity and nephrotoxicity testing, comparison of the two compounds: blood samples days 1, 4, 8, 12 and 16 after injection, haematocrit, white blood cell counts, plasma urea nitrogen
Text: (§1) The kidneys were also subjected to histological examination.

kidneys = assay: in vivo nephrotoxicity; parameters: species or system male Wistar albino rats; details: rat; for histological examination of the kidneys / plasma urea nitrogen levels / urine protein levels (proteinuria): in vivo; for gross nephrotoxicity: from plasma urea nitrogen
Text: as §1

[2] = association with α-cyclodextrin by microcalorimetry; type: physicochemical
Text: (§2) We have studied the association constant for the preferred compound according to the invention by a micro-calorimetric method which involves measuring the heat evolved when solutions of the platinum(II) compound and α-cyclodextrin are mixed and also by using a ^1 H n.m.r. spectroscopic approach.
For the microcalorimetry experiments, a solution of the platinum complex (0.02366 mol kg^-1) in water was mixed with a range of aqueous solutions of α-cyclodextrin (ca. 0.01-0.1 mol kg^-1) in a batch calorimeter operating at 25° C. A series of preliminary experiments was performed so that corrections for the contributions arising from the enthalpy of dilution of the two solutes could be made. The expression linking the enthalpy change per mol (ΔH) of Pt(NH3)2.CBDCAto the final molalities of both this guest (G) and the α-cyclodextrin host (H) and to the equilibrium constant (Ka) and the standard enthalpy change (ΔH⊖) for the equilibrium,
H+G.revreaction.H·G,
Ka =ΔH·ΔH⊖ /(ΔH⊖
[H]-ΔH[G])(ΔH⊖ -ΔH) (1)
In the Figure, the filled circles denote experimental points and the line denotes the analysis obtained using Equation (1). It is seen that good correlation is obtained between theory and practice.

[3] = association with α-cyclodextrin by 1H n.m.r. spectroscopy; type: physicochemical; details: D2O, ca. 22° C.; corrected chemical shifts H-3 and H-a vs fraction bound
Description: as §2
For the spectroscopic approach, two types of spectroscopic investigations were performed in D2 O at ca. 22° C. using a Bruker AM250FT Spectrometer. In the first series of experiments, equimolar solutions of Pt(NH3)2.CBDCA and α-cyclodextrin were studied at various dilutions and, in the second series of experiments, the concentration of the platinum complex was kept constant and the concentration of the α-cyclodextrin was varied. When processing the chemical shift data, corrections were made to allow for the tendency of α-cyclodextrin to self-associate. […] The latter was calculated from the equilibrium constant, corrected to the aquamolal scale, obtained from the microcalorimetric measurements.

[4] = cited from earlier work

Molecule | faecal levels, Pt excretion [1] | urine levels, Pt excretion [1] | haematotoxicity and nephrotoxicity testing, comparison of the two compounds (in vivo haematotoxicity) | anaemic and myelosuppressive response (in vivo haematotoxicity; inclusion compound compared with Pt(NH3)2.CBDCA alone) | histological examination of the kidneys (kidneys) | plasma urea nitrogen levels (kidneys) | urine protein levels (proteinuria) (kidneys) | gross nephrotoxicity (kidneys) | aqueous solubility (attainable concentration) (aqueous α-cyclodextrin solution) | standard entropy change ΔS⊖ ([2]; association with α-cyclodextrin in water, recorded in FIG. 2) [J K^-1 mol^-1] | tendency to associate with α-cyclodextrin ([2]; in water) | standard enthalpy change ΔH⊖ ([2]; in water, 25° C., association with α-cyclodextrin) [kJ/mol] | association (equilibrium) constant Ka ([2]; in water, 25° C., α-cyclodextrin host) [kg/mol] | agreement between n.m.r. and thermodynamic results [3] | aqueous solubility (attainable concentration) (water) [mM] | general toxicity ([4]; compared with certain other platinum-containing compounds, particularly cisplatin) | kidney toxicity ([4]; relative to cisplatin)
inclusion compound of 1,1-cyclobutanedicarboxylatediammineplatinum(II) and α-cyclodextrin | 4-5% | 65-67% | Results as between the two test compounds were similar | slightly less anaemic and myelosuppressive response | Some nuclear enlargement of the kidneys | remained constant throughout the study period | no obvious proteinuria was observed | no gross nephtrotoxicity | approximately 200 mM | – | – | – | – | – | – | – | –
N.N.O=C([O-])C1(C(=O)[O-])CCC1.[Pt+4] [Pt(NH3)2.CBDCA, 1,1-cyclobutanedicarboxylatediammineplatinum(II)] | 4-5% | 65-67% | Results as between the two test compounds were similar | – | Some nuclear enlargement of the kidneys | remained constant throughout the study period | no obvious proteinuria was observed | no gross nephtrotoxicity | – | -27 | very marked tendency to associate with α-cyclodextrin in water | -21.0 ± 2.0 | 199 ± 10 | excellent agreement between the n.m.r. and thermodynamic results | 50 | relatively non-toxic | reduced dramatically
